What was measured:
[1] = test system: SF268-MCAT_Luc_dox-i-shYAPLevy (Clone 13) cells; test: Proliferation assay (resazurin/AlamarBlue), SF268; type: cell-based; settings: SF268, 72 hours
[2] = test system: MKN-45/Ubc-luc cells (unspecific inhibition of luciferase expression or activity); test: Reporter gene assay specificity control (Ubc-Luc), MKN-45; type: cell-based; settings: MKN-45/Ubc-luc specificity control, 24 hrs
Summary of the method: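 MKN-45 cells stably carrying a ubiquitin C promoter–firefly luciferase construct, treated the day after seeding with eleven 2-fold compound dilutions (0.1% DMSO final) for 24 hrs at 37° C. Luminescence read 5 min after Steady Glo addition; cell-free background subtracted, as a control for nonspecific luciferase inhibition.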

[3] = test system: YAP-dependent transcription in NCI-H2052 Tet-On shYAP_2371 pLenti6 MCAT_Luc cells; test: YAP reporter gene activity assay (MCAT-Luc), NCI-H2052; type: cell-based; settings: 24 hrs
[4] = molecular target: TEAD1-GFP in HEK293A cells (Homo sapiens (Human), UniProt P28347); test: TEAD1 protein abundance flow cytometry assay in HEK293A; type: cell-based; settings: HEK293A TEAD1-GFP-CHYSEL-mCherry sensor cells, 24 h, GFP signal by flow cytometry
Description: Degradation of TEAD1 was measured in HEK293A cells (Invitrogen R70507) expressing TEAD1-GFP and mCherry from a stably integrated bicistronic TEAD1-GFP-CHYSEL-mCherry construct. Reduction of the GFP signal measured by flow cytometry served as readout for TEAD1 degradation after degrader treatment.
Stable HEK293A sensor cells were maintained in complete growth medium (DMEM high Glucose+10% FCS+1% L-Glutamine+1% NEAA+1% NaPyr.+4 μg/mL blasticidin) with passaging performed twice per week. On Day 0, stable HEK293A sensor cells were seeded at 5,000 cells/well in a 96-well microtiter plate in 100 μL complete medium. On Day 1, cells were treated in duplicate with 10-point 1:3 dilution series of compound using the HP D300 Digital Dispenser (Tecan). DMSO concentrations were normalized across the plate to 0.1%. On Day 2, after 24 h of incubation at 37° C., treatment media was discarded, cells rinsed with 100 μL/well PBS and then detached using 40 μL trypsin/well for 5 min. Trypsin was neutralized with 100 μL/well PBS+20% FCS).
Flow cytometry was performed on the samples using the CytoFlex S (Beckman Coulter). Cell identification was then performed using forward (FSC) vs. side scatter (SSC) plots. Single cell discrimination was performed using SSC-Width (SSC-W) vs. SSC-Height (SSCH) plots. Median GFP values for 2,500 single cells were used to determine TEAD1 levels. Median GFP values from HEK293A were used as a background signal and thus defining 0% TEAD1 signal. Median GFP values from DMSO treated HEK293A TEAD1-GFP CHYSEL-mCherry were used to define 100%
TEAD1 signal for subsequent DC50 curves (concentration at 50% TAED1 degradation). GFP and RFP were read in the channels called FITC and PE, respectively. Concentration response curves plotting relative reduction of the GFP signal (measured by flow cytometry) versus 10 compound concentrations (starting concentration 10 μM, 3 fold dilution steps) of the compounds allowed generation of DC50 values.

[5] = test system: YAP-dependent transcription in SF268-MCAT_Luc_dox-i-shYAPLevy (Clone 13) cells; test: YAP reporter gene activity assay (MCAT-Luc), SF268; type: cell-based; settings: SF268 MCAT_Luc, 24 hrs
[6] = molecular target: Avi-humanTEAD4^217-434 / Cy5 labeled humanYAP^60-100 (Homo sapiens (Human), UniProt Q15561); test: In-vitro biochemical TR-FRET assay (TEAD4/YAP); type: binding; settings: 1 h at room temperature
[7] = test system: NCI-H2052 Tet-On shYAP_2371 pLenti6 MCAT_Luc cells; test: Proliferation assay (resazurin/AlamarBlue), NCI-H2052; type: cell-based; settings: NCI-H2052, 72 hours
[8] = test system: MKN-45/Ubc-luc cells; test: Proliferation assay (resazurin/AlamarBlue), MKN-45; type: cell-based; settings: MKN-45, 72 hours
Summary of the method: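 MKN-45 cells carrying constitutive Ubc-driven luciferase reporter, treated the day after seeding with eleven 2-fold dilutions (0.1% DMSO) for 72 h at 37 °C. Viability by resazurin, referenced to day-0 plate; GI50 from % growth (100 none, 0 stasis, −100 kill) and residual viability at top concentration.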

TEAD1-GFP in HEK293A cells, sequence (P28347 whole entry): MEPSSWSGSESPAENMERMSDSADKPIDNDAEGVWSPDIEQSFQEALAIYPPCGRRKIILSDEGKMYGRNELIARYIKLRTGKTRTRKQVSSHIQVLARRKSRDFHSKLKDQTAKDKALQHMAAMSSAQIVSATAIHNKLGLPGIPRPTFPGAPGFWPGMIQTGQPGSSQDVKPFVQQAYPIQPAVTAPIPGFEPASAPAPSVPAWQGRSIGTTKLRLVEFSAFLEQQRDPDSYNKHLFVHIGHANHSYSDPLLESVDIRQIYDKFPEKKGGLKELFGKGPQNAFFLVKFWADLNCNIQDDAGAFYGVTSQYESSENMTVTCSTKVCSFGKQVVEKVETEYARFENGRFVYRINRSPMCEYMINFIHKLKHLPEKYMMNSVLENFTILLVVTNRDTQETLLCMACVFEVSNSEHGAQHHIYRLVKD
Avi-humanTEAD4^217-434 / Cy5 labeled humanYAP^60-100, sequence (Q15561 217-434): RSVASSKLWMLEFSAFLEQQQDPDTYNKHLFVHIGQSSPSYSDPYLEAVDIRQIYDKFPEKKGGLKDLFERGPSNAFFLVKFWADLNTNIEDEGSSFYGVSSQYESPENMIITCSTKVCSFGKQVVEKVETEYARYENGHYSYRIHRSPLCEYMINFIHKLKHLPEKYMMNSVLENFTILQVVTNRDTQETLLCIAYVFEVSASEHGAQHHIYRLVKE

Row | IC50 ([2]; Homo sapiens) | IC50 ([3]; Homo sapiens) | DC50 [4] | IC50 ([5]; Homo sapiens, SF-268) | IC50 [6] | GI50 ([7]; Homo sapiens) | GI50 ([8]; Homo sapiens) | IC50 [2] | IC50 [3] | IC50 [5] | GI50 [7] | GI50 [8] | Compound | GI50 ([1]; Homo sapiens, SF-268) | GI50 [1]
1 | > 2000 nM | 3.2 nM | 0.5 nM | 0.54 nM | 2.4 nM | 8.5 nM | > 2000 nM |  |  |  |  |  | COc1ccc(C(N)=O)c(-c2c(Cl)c(F)cc3c2[C@H](C)[C@@](CN[C@H]2CC[C@H](C(=O)N4CCC(CC5CCN(C(=O)COc6ccc(N7CCC(=O)NC7=O)cc6)CC5)CC4)CC2)(c2ccccc2)O3)c1F (atropisomer, axis not shown) [Example 25, 2-((2S,3S,4S)-5-chloro-2-((((1r,4S)-4-(4-((1-(2-(4-(2,4-dioxotetrahydropyrimidin-1(2H)-yl)phenoxy)acetyl)piperidin-4-yl)methyl)piperidine-1-carbonyl)cyclohexyl)amino)methyl)-6-fluoro-3-methyl-2-phenyl-2,3-dihydrobenzofuran-4-yl)-3-fluoro-4-methoxybenzamide] | 22 nM | 
2 | > 2000 nM | 79 nM | 27 nM | 11 nM | 2.3 nM | 270 nM | > 2000 nM |  |  |  |  |  | COc1ccc(C(N)=O)c(-c2c(Cl)c(F)cc3c2[C@H](C)[C@@](CN[C@H]2CC[C@H](C(=O)N4CCC(OC5CCN(C(=O)CCC(=O)N[C@H](C(=O)N6C[C@H](O)C[C@H]6C(=O)N[C@@H](C)c6ccc(-c7scnc7C)cc6)C(C)(C)C)CC5)CC4)CC2)(c2ccccc2)O3)c1F (atropisomer, axis not shown) [Example 41, (2S,4R)-1-((S)-2-(4-(4-((1-((1S,4r)-4-((((2S,3S,4S)-4-(6-carbamoyl-2-fluoro-3-methoxyphenyl)-5-chloro-6-fluoro-3-methyl-2-phenyl-2,3-dihydrobenzofuran-2-yl)methyl)amino)cyclohexane-1-carbonyl)piperidin-4-yl)oxy)piperidin-1-yl)-4-oxobutanamido)-3,3-dimethylbutanoyl)-4-hydroxy-N-((S)-1-(4-(4-methylthiazol-5-yl)phenyl)ethyl)pyrrolidine-2-carboxamide] | 310 nM | 
3 | > 2000 nM | 4.5 nM | 0.5 nM | 0.49 nM | 1.8 nM | 13 nM | > 2000 nM |  |  |  |  |  | COc1ccc(C(N)=O)c(-c2c(Cl)c(F)cc3c2[C@H](C)[C@@](CN[C@H]2CC[C@H](C(=O)N4CCC(OC5CCN(C(=O)c6ccc(Cl)c(N7CCC(=O)NC7=O)c6)CC5)CC4)CC2)(c2ccccc2)O3)c1F (atropisomer, axis not shown) [Example 13, 2-((2S,3S,4S)-5-chloro-2-((((1r,4S)-4-(4-((1-(4-chloro-3-(2,4-dioxotetrahydropyrimidin-1(2H)-yl)benzoyl)piperidin-4-yl)oxy)piperidine-1-carbonyl)cyclohexyl)amino)methyl)-6-fluoro-3-methyl-2-phenyl-2,3-dihydrobenzofuran-4-yl)-3-fluoro-4-methoxybenzamide] | 23 nM | 
4 | > 20000 nM | 91 nM | 11 nM | 1.4 nM | < 1 nM | 280 nM | > 20000 nM |  |  |  |  |  | COc1ccc(C(=O)N2CCC(C3CCN(CCNC(=O)[C@H]4CC[C@H](NC[C@]5(c6ccccc6)Oc6cc(F)c(Cl)c(-c7c(C(N)=O)ccc(OC)c7F)c6[C@@H]5C)CC4)CC3)CC2)cc1N1CCC(=O)NC1=O (atropisomer, axis not shown) [Example 11, 2-((2S,3S,4S)-5-chloro-2-((((1r,4S)-4-((2-(1′-(3-(2,4-dioxotetrahydropyrimidin-1(2H)-yl)-4-methoxybenzoyl)-[4,4′-bipiperidin]-1-yl)ethyl)carbamoyl)cyclohexyl)amino)methyl)-6-fluoro-3-methyl-2-phenyl-2,3-dihydrobenzofuran-4-yl)-3-fluoro-4-methoxybenzamide] | 51 nM | 
5 | > 20000 nM | 29 nM | 3 nM | 0.4 nM | < 1 nM | 77 nM | > 20000 nM |  |  |  |  |  | COc1ccc(C(=O)N2CCC(CC3CCN(CCNC(=O)[C@H]4CC[C@H](NC[C@]5(c6ccccc6)Oc6cc(F)c(Cl)c(-c7c(C(N)=O)ccc(OC)c7F)c6[C@@H]5C)CC4)CC3)CC2)cc1N1CCC(=O)NC1=O (atropisomer, axis not shown) [Example 7, 2-((2S,3S,4S)-5-chloro-2-((((1r,4S)-4-((2-(4-((1-(3-(2,4-dioxotetrahydropyrimidin-1(2H)-yl)-4-methoxybenzoyl)piperidin-4-yl)methyl)piperidin-1-yl)ethyl)carbamoyl)cyclohexyl)amino)methyl)-6-fluoro-3-methyl-2-phenyl-2,3-dihydrobenzofuran-4-yl)-3-fluoro-4-methoxybenzamide] | 26 nM | 
6 | > 2000 nM | 1.3 nM | 0.3 nM | 0.26 nM | 4 nM | 2.5 nM | > 2000 nM |  |  |  |  |  | COc1ccc(C(N)=O)c(-c2c(Cl)c(F)cc3c2[C@H](C)[C@@](CN[C@H]2CC[C@H](C(=O)N4CCC(CC5CCN(C(=O)COc6ccc(N7CCC(=O)NC7=O)c(C)c6)CC5)CC4)CC2)(c2ccccc2)O3)c1F (atropisomer, axis not shown) [Example 26, 2-((2S,3S,4S)-5-chloro-2-((((1r,4S)-4-(4-((1-(2-(4-(2,4-dioxotetrahydropyrimidin-1(2H)-yl)-3-methylphenoxy)acetyl)piperidin-4-yl)methyl)piperidine-1-carbonyl)cyclohexyl)amino)methyl)-6-fluoro-3-methyl-2-phenyl-2,3-dihydrobenzofuran-4-yl)-3-fluoro-4-methoxybenzamide] | 12 nM | 
7 | > 2000 nM | 2 nM | 0.4 nM | 0.18 nM | 1 nM | 9.5 nM | > 2000 nM |  |  |  |  |  | COc1ccc(C(N)=O)c(-c2c(Cl)c(F)cc3c2[C@H](C)[C@@](CN[C@H]2CC[C@H](C(=O)N4CCN(CC5CCN(C(=O)COc6ccc(C)c(N7CCC(=O)NC7=O)c6)CC5)CC4)CC2)(c2ccccc2)O3)c1F (atropisomer, axis not shown) [Example 22, 2-((2S,3S,4S)-5-chloro-2-((((1r,4S)-4-(4-((1-(2-(3-(2,4-dioxotetrahydropyrimidin-1(2H)-yl)-4-methylphenoxy)acetyl)piperidin-4-yl)methyl)piperazine-1-carbonyl)cyclohexyl)amino)methyl)-6-fluoro-3-methyl-2-phenyl-2,3-dihydrobenzofuran-4-yl)-3-fluoro-4-methoxybenzamide] | 9.5 nM | 
8 |  |  | 2 nM |  | 3.9 nM |  |  | > 2000 nM | 9.9 nM | 1.3 nM | 27 nM | > 2000 nM | N-(4-(1-((1S,4r)-4-((((2S,3S,4S)-4-(6-carbamoyl-2-fluoro-3-methoxyphenyl)-5-chloro-6-fluoro-3-methyl-2-phenyl-2,3-dihydrobenzofuran-2-yl)methyl)amino)cyclohexane-1-carbonyl)piperidin-4-yl)butyl)-3-(2,4-dioxotetrahydropyrimidin-1(2H)-yl)-4-methoxybenzamide [Example 18] |  | 60 nM

From US20240382600A1, “BIFUNCTIONAL DEGRADERS COMPRISING A TEAD BINDER” (Novartis AG, priority 2021, published 2024)
